{"source": "patent US8420658B2", "about": "“Use of Carboxyamidotriazole (CAI) orotate in macular degeneration” (Tactical Therapeutics Inc, priority 2006, dated 2013)", "key": {"[1]": {"tested_on": "Dunning rat model for prostate cancer", "conditions": "orotate salt of CAI compared with CAI; from U.S. Pat. Nos. 5,861,406 and 5,912,346; cited from earlier work"}, "[2]": {"tested_on": "Human umbilical vein endothelial cells (HUVEC)", "test": "Proliferation assay for endothelial cells (HUVEC), cell count after 3 days of treatment", "assay_type": "cell-based", "conditions": "HUVEC treated with three different concentrations for 3 days; triplicate; FIG. 1", "procedure": "FIG. 1 illustrates the results of the proliferation assay for endothelial cells (HUVEC).\nHuman umbilical vein endothelial cells (HUVEC) were treated with three different concentrations of Carboxyamidotriazole or 5 amino 1,2,3-triazole orotate (CAI Orotate) for 3 days. The cell number of each culture under different treatment conditions was counted. The assays were done in triplicate and the data are expressed as mean +/− standard deviation."}}, "data": [{"smiles": "NC(=O)c1nnn(Cc2cc(Cl)c(C(=O)c3ccc(Cl)cc3)c(Cl)c2)c1N.O=C(O)c1cc(=O)[nH]c(=O)[nH]1", "note": "[CAI Orotate, Carboxyamidotriazole or 5 amino 1,2,3-triazole orotate]", "values": [{"measurement": "Antitumor effect compared with CAI", "setting": "[1]", "value": "improved antitumor effect"}, {"measurement": "Inhibition of angiogenesis (HUVEC cell number)", "setting": "[2]", "value": "inhibited angiogenesis in a dose related manner"}]}]}
